Here are results for 25 compounds from patent US11891387B2, “Monoacylglycerol lipase modulators” (Janssen Pharmaceutica NV, priority 2020, dated 2024).

For this assay, the target named is human MGL from HeLa cells (Homo sapiens (Human), UniProt Q99685). In words: MGL in vitro activity assay: cleavage of [glycerol-1,3-3H]-oleyl glycerol, activated carbon filtration. In kind it is biochemical. Particulars: 300 nM [Glycerol-1,3-3H]-oleyl glycerol, endogenously expressed MGL from HeLa cells, one hour incubation. In short, it runs like this:
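Endogenous human MGL from HeLa cells or homogenates was incubated with compound and 300 nM [glycerol-1,3-3H]-oleyl glycerol for one hour. Released [3H]-glycerol passing an activated carbon filter was counted as the measure of activity. Screening used 10 μM compound, with IC50 top concentration set empirically.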

Sequence of human MGL from HeLa cells (Q99685 whole entry): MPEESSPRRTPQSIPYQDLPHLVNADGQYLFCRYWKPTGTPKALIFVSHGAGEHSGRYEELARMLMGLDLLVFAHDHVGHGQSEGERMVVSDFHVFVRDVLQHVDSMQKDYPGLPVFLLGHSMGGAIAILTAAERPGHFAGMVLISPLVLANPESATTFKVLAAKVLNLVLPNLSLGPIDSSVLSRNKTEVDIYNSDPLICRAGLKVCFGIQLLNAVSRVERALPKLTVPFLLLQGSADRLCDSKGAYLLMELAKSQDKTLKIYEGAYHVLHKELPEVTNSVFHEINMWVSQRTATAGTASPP

By IC50 is commonly meant the concentration at which inhibition is half-maximal. As to `C[C@H]1c2nn(C)c(-c3cc(C(F)(F)F)nn3C)c2CCN1C(=O)c1ccc(F)c2c1cnn2C` [Example 21, (S)-(2,7-Dimethyl-3-(1-methyl-3-(trifluoromethyl)-1H-pyrazol-5-yl)-2,4,5,7-tetrahydro-6H-pyrazolo[3,4-c]pyridin-6-yl)(7-fluoro-1-methyl-1H-indazol-4-yl)methanone], the IC50 was determined as 5.6 nM.

For the compound `C[C@H]1c2nn(C)c(-c3cc(C(F)(F)F)n(C)n3)c2CCN1C(=O)c1ccc2ncccc2c1` [Example 63, (S)-(2,7-Dimethyl-3-(1-methyl-5-(trifluoromethyl)-1H-pyrazol-3-yl)-2,4,5,7-tetrahydro-6H-pyrazolo[3,4-c]pyridin-6-yl)(quinolin-6-yl)methanone], half-maximal inhibition (IC50) was put at 63 nM.

In turn, `C[C@H]1c2nn(C)c(-c3cc(C(F)(F)F)nn3C)c2CCN1C(=O)c1nccc2ccccc12` [Example 44, (S)-(2,7-Dimethyl-3-(1-methyl-3-(trifluoromethyl)-1H-pyrazol-5-yl)-2,4,5,7-tetrahydro-6H-pyrazolo[3,4-c]pyridin-6-yl)(isoquinolin-1-yl)methanone] had an IC50 of 19 nM.

`COc1cccc(C(=O)N2[C@@H]3CC[C@H]2c2nn(C)c(-c4cc(C(F)(F)F)nn4C)c2C3)c1C` [Example 89, (3-Methoxy-2-methylphenyl)((5R,8S)-2-methyl-3-(1-methyl-3-(trifluoromethyl)-1H-pyrazol-5-yl)-2,4,5,6,7,8-hexahydro-5,8-epiminocyclohepta[c]pyrazol-9-yl)methanone] had an IC50 of 66 nM.

Regarding `C[C@H]1c2nn(C)c(-c3cc(C(F)(F)F)nn3C)c2CCN1C(=O)c1ccc2c(c1)OCCC2` [Example 55, (S)-Chroman-7-yl(2,7-dimethyl-3-(1-methyl-3-(trifluoromethyl)-1H-pyrazol-5-yl)-2,4,5,7-tetrahydro-6H-pyrazolo[3,4-c]pyridin-6-yl)methanone], the IC50 stood at 110 nM.

In turn, `COc1cccc(C(=O)N2CCc3c(nn(C)c3-c3cc(C(F)(F)F)nn3C)[C@@H]2C)c1C` [Example 36, (S)-(2,7-Dimethyl-3-(1-methyl-3-(trifluoromethyl)-1H-pyrazol-5-yl)-2,4,5,7-tetrahydro-6H-pyrazolo[3,4-c]pyridin-6-yl)(3-methoxy-2-methylphenyl)methanone] came in with an IC50 of 23 nM.

In turn, `Cc1cc(C)c2cc(C(=O)N3CCc4c(nn(C)c4-c4cc(C(F)(F)F)nn4C)[C@@H]3C)ccc2n1` [Example 94, (S)-(2,7-Dimethyl-3-(1-methyl-3-(trifluoromethyl)-1H-pyrazol-5-yl)-2,4,5,7-tetrahydro-6H-pyrazolo[3,4-c]pyridin-6-yl)(2,4-dimethylquinolin-6-yl)methanone] returned an IC50 of 39 nM.

As for `C[C@H]1c2nn(C)c(-c3cnn(C)c3C(F)(F)F)c2CCN1C(=O)c1ccc2ncsc2c1` [Example 59, (S)-Benzo[d]thiazol-6-yl(2,7-dimethyl-3-(1-methyl-5-(trifluoromethyl)-1H-pyrazol-4-yl)-2,4,5,7-tetrahydro-6H-pyrazolo[3,4-c]pyridin-6-yl)methanone], the IC50 is 2960 nM.

`Cc1nc2ccc(C(=O)N3CCc4c(nn(C)c4-c4cc(C(F)(F)F)nn4C)[C@@H]3C)cc2s1` [Example 58, (S)-(2,7-Dimethyl-3-(1-methyl-3-(trifluoromethyl)-1H-pyrazol-5-yl)-2,4,5,7-tetrahydro-6H-pyrazolo[3,4-c]pyridin-6-yl)(2-methylbenzo[d]thiazol-6-yl)methanone] showed an IC50 of 55 nM.

`COc1cccc(C(=O)N2CCc3c(nn(C)c3-c3cnn(C)c3C(F)(F)F)[C@@H]2C)c1Cl` [Example 51, (S)-(2-Chloro-3-methoxyphenyl)(2,7-dimethyl-3-(1-methyl-5-(trifluoromethyl)-1H-pyrazol-4-yl)-2,4,5,7-tetrahydro-6H-pyrazolo[3,4-c]pyridin-6-yl)methanone] came in with an IC50 of 890 nM.

Compound `C[C@H]1c2nn(C)c(-c3cc(C(F)(F)F)nn3C)c2CCN1C(=O)c1ccc(OC(F)(F)F)cc1Cl` [Example 113, (S)-(2-Chloro-4-(trifluoromethoxy)phenyl)(2,7-dimethyl-3-(1-methyl-3-(trifluoromethyl)-1H-pyrazol-5-yl)-2,4,5,7-tetrahydro-6H-pyrazolo[3,4-c]pyridin-6-yl)methanone] registered an IC50 of 9900 nM.

Take `Cc1cc(C(=O)N2CCc3c(nn(C)c3-c3cnn(C)c3C(F)(F)F)[C@@H]2C)cc(-n2nccn2)c1` [Example 53, (S)-(2,7-Dimethyl-3-(1-methyl-5-(trifluoromethyl)-1H-pyrazol-4-yl)-2,4,5,7-tetrahydro-6H-pyrazolo[3,4-c]pyridin-6-yl)(3-methyl-5-(2H-1,2,3-triazol-2-yl)phenyl)methanone]: the IC50 came to 810 nM.

For `C[C@H]1c2nn(C)c(-c3cc(C(F)(F)F)nn3C)c2CCN1C(=O)c1ccccc1C(F)(F)F` [Example 29, (S)-(2,7-Dimethyl-3-(1-methyl-3-(trifluoromethyl)-1H-pyrazol-5-yl)-2,4,5,7-tetrahydro-6H-pyrazolo[3,4-c]pyridin-6-yl)(2-(trifluoromethyl)phenyl)methanone], the IC50 was 150 nM.

As to `C[C@H]1c2nn(C)c(-c3cc(C(F)(F)F)nn3C)c2CCN1C(=O)c1cc(F)ccc1-n1cccn1` [Example 37, (S)-(2,7-Dimethyl-3-(1-methyl-3-(trifluoromethyl)-1H-pyrazol-5-yl)-2,4,5,7-tetrahydro-6H-pyrazolo[3,4-c]pyridin-6-yl)(5-fluoro-2-(1H-pyrazol-1-yl)phenyl)methanone], inhibition was half-maximal at 380 nM (IC50).

`Cc1ccc(C(=O)N2[C@@H]3CCC[C@H]2c2nn(C)c(-c4cc(C)nn4C)c2C3)c(F)c1` (stereo in doubt) [Example 72, ((5R,9S)-3-(1,3-Dimethyl-1H-pyrazol-5-yl)-2-methyl-4,5,6,7,8,9-hexahydro-2H-5,9-epiminocycloocta[c]pyrazol-10-yl)(2-fluoro-4-methylphenyl)methanone]: the IC50 was determined as 1130 nM.

As for `C[C@H]1c2nn(C)c(-c3cnn(C)c3)c2CCN1C(=O)c1ccc2ncccc2c1` [Example 62, (S)-(2,7-Dimethyl-3-(1-methyl-1H-pyrazol-4-yl)-2,4,5,7-tetrahydro-6H-pyrazolo[3,4-c]pyridin-6-yl)(quinolin-6-yl)methanone], the IC50 stood at 1940 nM.

As to `COc1cccc(C(=O)N2CCc3c(nn(C)c3-c3cc(C(F)(F)F)nn3C)[C@@H]2C)c1Cl` [Example 35, (S)-(2-Chloro-3-methoxyphenyl)(2,7-dimethyl-3-(1-methyl-3-(trifluoromethyl)-1H-pyrazol-5-yl)-2,4,5,7-tetrahydro-6H-pyrazolo[3,4-c]pyridin-6-yl)methanone], the half-maximal inhibitory concentration (IC50) came out at 25 nM.

`Cc1nc2cc(F)ccc2cc1C(=O)N1CCc2c(nn(C)c2-c2cc(C(F)(F)F)nn2C)[C@@H]1C` [Example 24, (S)-(2,7-Dimethyl-3-(1-methyl-3-(trifluoromethyl)-1H-pyrazol-5-yl)-2,4,5,7-tetrahydro-6H-pyrazolo[3,4-c]pyridin-6-yl)(7-fluoro-2-methylquinolin-3-yl)methanone] yielded an IC50 of 1760 nM.

Regarding `C[C@H]1c2nn(C)c(-c3cc(C(F)(F)F)n(C)n3)c2CCN1C(=O)c1cnn2cccc(F)c12` [Example 19, (S)-(2,7-Dimethyl-3-(1-methyl-5-(trifluoromethyl)-1H-pyrazol-3-yl)-2,4,5,7-tetrahydro-6H-pyrazolo[3,4-c]pyridin-6-yl)(4-fluoropyrazolo[1,5-a]pyridin-3-yl)methanone], the half-maximal inhibitory concentration (IC50) worked out at 19 nM.

Compound `Cc1ccc2c(F)c(C(=O)N3CCc4c(nn(C)c4-c4cc(C(F)(F)F)nn4C)[C@@H]3C)ccc2n1` [Example 90, (S)-(2,7-dimethyl-3-(1-methyl-3-(trifluoromethyl)-1H-pyrazol-5-yl)-2,4,5,7-tetrahydro-6H-pyrazolo[3,4-c]pyridin-6-yl)(5-fluoro-2-methylquinolin-6-yl)methanone] registered an IC50 of 230 nM.

As for `Cc1ccc2cc(C(=O)N3CCc4c(nn(C)c4-c4cc(C(F)(F)F)nn4C)[C@@H]3C)c(F)cc2n1` [Example 91, (S)-(2,7-Dimethyl-3-(1-methyl-3-(trifluoromethyl)-1H-pyrazol-5-yl)-2,4,5,7-tetrahydro-6H-pyrazolo[3,4-c]pyridin-6-yl)(7-fluoro-2-methylquinolin-6-yl)methanone], the IC50 was determined as 210 nM.

In turn, `Cn1nc(-c2c3c(nn2C)[C@@H]2CCC[C@H](C3)N2C(=O)c2ccc3ncccc3c2)cc1C(F)(F)F` [Example 87, ((5R,9S)-2-Methyl-3-(1-methyl-5-(trifluoromethyl)-1H-pyrazol-3-yl)-4,5,6,7,8,9-hexahydro-2H-5,9-epiminocycloocta[c]pyrazol-10-yl)(quinolin-6-yl)methanone] gave an IC50 of 17 nM.

For `C[C@H]1c2nn(C)c(-c3cc(C(F)(F)F)n(C)n3)c2CCN1C(=O)c1ccnc2c1ccn2C` [Example 49, (S)-(2,7-Dimethyl-3-(1-methyl-5-(trifluoromethyl)-1H-pyrazol-3-yl)-2,4,5,7-tetrahydro-6H-pyrazolo[3,4-c]pyridin-6-yl)(1-methyl-1H-pyrrolo[2,3-b]pyridin-4-yl)methanone], the midpoint of inhibition, the IC50, lay at 3.2 nM.

Regarding `C[C@H]1c2nn(C)c(-c3cc(C(F)(F)F)nn3C)c2CCN1C(=O)c1cccc(OC(F)(F)F)c1F` [Example 112, (S)-(2,7-Dimethyl-3-(1-methyl-3-(trifluoromethyl)-1H-pyrazol-5-yl)-2,4,5,7-tetrahydro-6H-pyrazolo[3,4-c]pyridin-6-yl)(2-fluoro-3-(trifluoromethoxy)phenyl)methanone], inhibition was half-maximal at 86 nM (IC50).

Take `COc1cccc(C(=O)N2CCc3c(nn(C)c3-c3cc(C(F)(F)F)nn3C)[C@@H]2C)c1` [Example 38, (S)-(2,7-Dimethyl-3-(1-methyl-3-(trifluoromethyl)-1H-pyrazol-5-yl)-2,4,5,7-tetrahydro-6H-pyrazolo[3,4-c]pyridin-6-yl)(3-methoxyphenyl)methanone]: the IC50 stood at 73 nM.
